Numbers after ± are expanded uncertainties.
Assay: molar heat capacity at saturation pressure; xn = mol fraction of the nth substance listed

CCCCn1cc[n+](C)c1.Cc1ccc(S(=O)(=O)[O-])cc1 [1-butyl-3-methylimidazolium tosylate] + O
Details | molar heat capacity [J/K/mol]
294.67 K, Crystal, x1 = 0.3 | 204.91 ± 2.1
294.68 K, Crystal, x1 = 0.83 | 580.85 ± 5.2
294.91 K, Crystal, x1 = 0.37 | 561.1 ± 5
295.64 K, Crystal, x1 = 0.37 | 590.88 ± 5.2
295.82 K, Liquid, x1 = 0.3 | 198.57 ± 2
296.25 K, Crystal, x1 = 0.83 | 574.07 ± 5.2
296.33 K, Crystal, x1 = 0.37 | 593.15 ± 5.2
296.53 K, Metastable crystal, x1 = 0.83 | 425.47 ± 3.9
296.97 K, Liquid, x1 = 0.3 | 199.1 ± 2
297.06 K, Crystal, x1 = 0.37 | 577.63 ± 5.2
297.82 K, Crystal, x1 = 0.37 | 542.42 ± 5.2
297.88 K, Crystal, x1 = 0.83 | 481.52 ± 4.4
298.13 K, Liquid, x1 = 0.3 | 199.52 ± 2
298.45 K, Metastable crystal, x1 = 0.83 | 435.64 ± 3.9
298.66 K, Crystal, x1 = 0.37 | 429.59 ± 4.9
299.28 K, Liquid, x1 = 0.3 | 199.84 ± 2
299.67 K, Crystal, x1 = 0.83 | 439.03 ± 3.9
299.68 K, Crystal, x1 = 0.37 | 268.68 ± 4
300.26 K, Metastable crystal, x1 = 0.83 | 440.59 ± 3.9
301.01 K, Liquid, x1 = 0.3 | 200.58 ± 2
301.5 K, Crystal, x1 = 0.83 | 445.81 ± 3.9
301.5 K, Liquid, x1 = 0.37 | 233.85 ± 2.3
302.51 K, Metastable crystal, x1 = 0.83 | 454.93 ± 4.2
303.31 K, Crystal, x1 = 0.83 | 454.15 ± 4.2
303.34 K, Liquid, x1 = 0.3 | 201.21 ± 2
304 K, Liquid, x1 = 0.37 | 232.59 ± 2.3
305.11 K, Crystal, x1 = 0.83 | 462.49 ± 4.2
305.64 K, Liquid, x1 = 0.3 | 201.95 ± 2.1
306.39 K, Metastable crystal, x1 = 0.83 | 484.39 ± 4.4
306.5 K, Liquid, x1 = 0.37 | 233.6 ± 2.3
306.89 K, Crystal, x1 = 0.83 | 471.88 ± 4.2
307.94 K, Liquid, x1 = 0.3 | 202.8 ± 2.1
308.65 K, Crystal, x1 = 0.83 | 484.39 ± 4.4
309 K, Liquid, x1 = 0.37 | 234.48 ± 2.3
309.82 K, Metastable crystal, x1 = 0.83 | 516.2 ± 4.7
310.24 K, Liquid, x1 = 0.3 | 203.54 ± 2.1
310.39 K, Crystal, x1 = 0.83 | 497.69 ± 4.4
311.5 K, Liquid, x1 = 0.37 | 235.37 ± 2.3
312.09 K, Crystal, x1 = 0.83 | 512.81 ± 4.7
312.54 K, Liquid, x1 = 0.3 | 204.38 ± 2.1
313.06 K, Metastable crystal, x1 = 0.83 | 550.87 ± 5
313.75 K, Crystal, x1 = 0.83 | 529.23 ± 4.7
313.99 K, Liquid, x1 = 0.37 | 236.25 ± 2.4
314.83 K, Liquid, x1 = 0.3 | 205.13 ± 2.1
315.4 K, Crystal, x1 = 0.83 | 549.31 ± 5
316.18 K, Metastable crystal, x1 = 0.83 | 596.49 ± 5.2
316.49 K, Liquid, x1 = 0.37 | 237.13 ± 2.4
317.02 K, Crystal, x1 = 0.83 | 571.21 ± 5
317.13 K, Liquid, x1 = 0.3 | 205.87 ± 2.1
318.6 K, Crystal, x1 = 0.83 | 596.23 ± 5.2
318.98 K, Liquid, x1 = 0.37 | 238.14 ± 2.4
319.16 K, Metastable crystal, x1 = 0.83 | 653.33 ± 5.7
319.42 K, Liquid, x1 = 0.3 | 206.82 ± 2.1
320.13 K, Crystal, x1 = 0.83 | 624.39 ± 5.5
321.47 K, Liquid, x1 = 0.37 | 239.03 ± 2.4
321.62 K, Crystal, x1 = 0.83 | 655.93 ± 5.7
321.7 K, Liquid, x1 = 0.3 | 207.45 ± 2.1
321.99 K, Metastable crystal, x1 = 0.83 | 719.81 ± 6.3
323.06 K, Crystal, x1 = 0.83 | 690.35 ± 6
323.96 K, Liquid, x1 = 0.37 | 239.91 ± 2.4
323.99 K, Liquid, x1 = 0.3 | 208.19 ± 2.1
324.46 K, Crystal, x1 = 0.83 | 727.63 ± 6.3
324.62 K, Metastable crystal, x1 = 0.83 | 811.31 ± 7
325.81 K, Crystal, x1 = 0.83 | 774.82 ± 6.8
326.27 K, Liquid, x1 = 0.3 | 209.04 ± 2.1
326.44 K, Liquid, x1 = 0.37 | 240.92 ± 2.4
327.04 K, Metastable crystal, x1 = 0.83 | 934.11 ± 8.1
327.1 K, Crystal, x1 = 0.83 | 828.52 ± 7
328.33 K, Crystal, x1 = 0.83 | 892.65 ± 7.6
328.55 K, Liquid, x1 = 0.3 | 209.99 ± 2.1
328.93 K, Liquid, x1 = 0.37 | 241.8 ± 2.4
329.23 K, Metastable crystal, x1 = 0.83 | 1093.4 ± 9.4
329.5 K, Crystal, x1 = 0.83 | 965.13 ± 8.3
330.61 K, Crystal, x1 = 0.83 | 1053 ± 9.1
330.82 K, Liquid, x1 = 0.3 | 210.94 ± 2.1
331.17 K, Metastable crystal, x1 = 0.83 | 1295.7 ± 11
331.41 K, Liquid, x1 = 0.37 | 242.69 ± 2.4
331.64 K, Crystal, x1 = 0.83 | 1141.9 ± 9.6
332.6 K, Crystal, x1 = 0.83 | 1224.8 ± 11
332.82 K, Metastable crystal, x1 = 0.83 | 1513.7 ± 13
333.09 K, Liquid, x1 = 0.3 | 212.21 ± 2.1
333.26 K, Crystal, x1 = 0.83 | 1386.4 ± 13
333.89 K, Liquid, x1 = 0.37 | 243.57 ± 2.4
334.14 K, Crystal, x1 = 0.83 | 1617.9 ± 14
334.32 K, Metastable crystal, x1 = 0.83 | 1881.5 ± 16
335.19 K, Crystal, x1 = 0.83 | 1296.5 ± 12
335.35 K, Liquid, x1 = 0.3 | 213.8 ± 2.1
336.19 K, Crystal, x1 = 0.83 | 1133.3 ± 11
336.37 K, Liquid, x1 = 0.37 | 244.45 ± 2.4
336.41 K, Metastable crystal, x1 = 0.83 | 678.36 ± 13
337.35 K, Crystal, x1 = 0.83 | 711.99 ± 9.1
337.61 K, Liquid, x1 = 0.3 | 215.06 ± 2.2
338.19 K, Crystal, x1 = 0.83 | 480.74 ± 7
338.85 K, Liquid, x1 = 0.37 | 245.21 ± 2.4
339.63 K, Liquid, x1 = 0.83 | 464.32 ± 4.2
339.88 K, Liquid, x1 = 0.3 | 213.58 ± 2.1
340.02 K, Liquid, x1 = 0.83 | 459.1 ± 4.2
341.32 K, Liquid, x1 = 0.37 | 246.09 ± 2.4
341.87 K, Liquid, x1 = 0.83 | 460.41 ± 4.2
342.14 K, Liquid, x1 = 0.3 | 213.58 ± 2.1
342.82 K, Liquid, x1 = 0.83 | 461.71 ± 4.2
343.71 K, Liquid, x1 = 0.83 | 461.71 ± 4.2
343.8 K, Liquid, x1 = 0.37 | 246.98 ± 2.4
344.41 K, Liquid, x1 = 0.3 | 214.32 ± 2.1
345.56 K, Liquid, x1 = 0.83 | 462.75 ± 4.2
345.93 K, Liquid, x1 = 0.83 | 463.79 ± 4.2
346.27 K, Liquid, x1 = 0.37 | 247.86 ± 2.4
346.67 K, Liquid, x1 = 0.3 | 214.96 ± 2.2
347.4 K, Liquid, x1 = 0.83 | 464.06 ± 4.2
348.75 K, Liquid, x1 = 0.37 | 248.62 ± 2.4
348.93 K, Liquid, x1 = 0.3 | 215.7 ± 2.2
349.04 K, Liquid, x1 = 0.83 | 465.88 ± 4.2
349.25 K, Liquid, x1 = 0.83 | 465.36 ± 4.2
351.1 K, Liquid, x1 = 0.83 | 466.66 ± 4.2
351.19 K, Liquid, x1 = 0.3 | 216.44 ± 2.2
351.22 K, Liquid, x1 = 0.37 | 249.38 ± 2.4
352.16 K, Liquid, x1 = 0.83 | 467.97 ± 4.2
352.94 K, Liquid, x1 = 0.83 | 467.71 ± 4.2
353.44 K, Liquid, x1 = 0.3 | 217.07 ± 2.2
353.69 K, Liquid, x1 = 0.37 | 250.51 ± 2.4
354.79 K, Liquid, x1 = 0.83 | 469.01 ± 4.2
355.28 K, Liquid, x1 = 0.83 | 469.79 ± 4.2
355.69 K, Liquid, x1 = 0.3 | 217.81 ± 2.2
356.16 K, Liquid, x1 = 0.37 | 251.4 ± 2.5
356.63 K, Liquid, x1 = 0.83 | 470.31 ± 4.2
357.94 K, Liquid, x1 = 0.3 | 218.55 ± 2.2
358.39 K, Liquid, x1 = 0.83 | 471.88 ± 4.2
358.47 K, Liquid, x1 = 0.83 | 471.62 ± 4.2
358.63 K, Liquid, x1 = 0.37 | 252.4 ± 2.5
360.18 K, Liquid, x1 = 0.3 | 219.19 ± 2.2
360.31 K, Liquid, x1 = 0.83 | 472.92 ± 4.2
361.09 K, Liquid, x1 = 0.37 | 253.04 ± 2.5
361.5 K, Liquid, x1 = 0.83 | 473.7 ± 4.2
362.15 K, Liquid, x1 = 0.83 | 474.22 ± 4.2
362.42 K, Liquid, x1 = 0.3 | 219.82 ± 2.2
363.55 K, Liquid, x1 = 0.37 | 253.92 ± 2.5
363.99 K, Liquid, x1 = 0.83 | 475.27 ± 4.2
364.61 K, Liquid, x1 = 0.83 | 475.79 ± 4.2
364.66 K, Liquid, x1 = 0.3 | 220.25 ± 2.2
365.82 K, Liquid, x1 = 0.83 | 476.31 ± 4.2
366 K, Liquid, x1 = 0.37 | 254.68 ± 2.5
366.89 K, Liquid, x1 = 0.3 | 221.09 ± 2.2
367.72 K, Liquid, x1 = 0.83 | 477.87 ± 4.2
368.46 K, Liquid, x1 = 0.37 | 255.69 ± 2.5

From the NIST ThermoML archive (doi:10.1021/je700152c)
